Results published in patent US20030176368A1, “Synthesis of epothilones, intermediates thereto and analogues thereof” (priority 2001, published 2003).
Where two headings read alike, the source gives them in different places.

Experiments:
CCRF-CEM = test: XTT cytotoxicity assay, CCRF-CEM cells; format: cell-based, human; settings: for activity in CCRF-CEM cell lines: Example 12, in words
Procedure: (§1) XTT assay following 72 h inhibition. CCRF-CEM is a human T-cell acute lymphoblastic leukemia cell line. The CCRF-CEM/VBL100, CCRF-CEM/VM1, and CCRF-CEM/Taxol cell lines all overexpress P-glycoprotein and display a multidrug resistance phenotype to MDR-associated oncolytics. (Chou et al. Proc. Natl. Acad. Sci. USA 98:8113, 2001; incorporated herein by reference).
(§2) A typical experiment invovles culturing cells (e.g., CCRF-CEM) at an initial density of 2-5×10^4 cells per ml. They are maintained in a 5% CO2-humidified atmosphere at 37° C. in RPMI medium 1640 (GIBCO/BRL) containing penicillin (100 units/ml), streptomycin (100 μg/ml) (GIBCO/BRL), and 5% heat-inactivated fetal bovine serum. For cells that were grown in suspension (such as CCRF-CEM and its sublines), cytotoxicitiy is measured by using the 2,-3-bis(2-methoxy-4-nitro-5-sulfophenyl)-5 carboxanilide)-2H terazodium hydroxide (XTT)-microculture tetrazonium method in duplicate in 96-well microtiter plates. For both methods, the absorbance of each well is measured with a microplate reader (EL-340, Bio-Tek, Burlington, Vt.). Each run entails six or seven concentrations of the tested drugs. Dose-effect relationship data are analyzed with the median-effect plot.
(§3) The CCRF-CEM human T cells, acute lymphoblastic leukemic cells, its teniposide-resistant subline (CCRF-CEM/VM1) and vinblastine-resistant subline (CCRF-CEM/VBL100) are obtained from W. T. Beck (University of Illinois, Chicago, Ill.).

CCRF-CEM/VBL100 = test: XTT cytotoxicity assay, vinblastine-resistant CCRF-CEM/VBL100 cells; format: cell-based, human
Procedure: as §1, §2, §3

[1] = Stability on exposure to murine plasma; format: in vitro ADME; settings: compared with the parent compound
Source text: See Chou et al. Proc. Natl. Acad. Sci. USA 98:8113, 2001, incorporated herein by reference, for details.
However, the apparently disappointing murine in vivo results should be viewed in the context of reports that dEpoB itself evidenced a degree of bioinstability in murine plasma; yet had much longer plasma half-lives in higher organisms, including humans (Chou et al. J. Proc. Natl. Acad. Sci. USA 98:8113, 2001; incorporated herein by reference). The observed discrepancy in efficacy between mice and other mammals, including humans, has been ascribed to higher esterase levels in rodents.

CCRF-CEM/VM1 = test: XTT cytotoxicity assay, teniposide-resistant CCRF-CEM/VM1 cells; format: cell-based, human
Procedure: as §1, §2, §3

CCRF-CEM/Taxol = test: XTT cytotoxicity assay, taxol-resistant CCRF-CEM/Taxol cells; format: cell-based, human; settings: for activity in CCRF-CEM cell lines resistant to Taxol: Example 12, in words
Procedure: as §1, §2

tubulin = test: Tubulin binding: formation of microtubules in the presence of the compounds; format: biochemical
Source text: Indeed, the microtubule stabilizing ability closely parallels the observed cytotoxicity data.

[2] = Homo sapiens, CCRF-CEM, Example 11 Table 2, XTT assay following 72-h inhibition, read-out: In Vitro Cytotoxicities (IC50) CCRF-CEM
[3] = Homo sapiens, CCRF-CEM, Example 11 Table 2, XTT assay following 72-h inhibition, read-out: In Vitro Cytotoxicities (IC50) CCRF-CEM/VBL100
[4] = Homo sapiens, CCRF-CEM, Example 11 Table 2, XTT assay following 72-h inhibition, read-out: In Vitro Cytotoxicities (IC50) CCRF-CEM/VMI
[5] = Homo sapiens, CCRF-CEM, Example 11 Table 2, XTT assay following 72-h inhibition, read-out: In Vitro Cytotoxicities (IC50) CCRF-CEM/TAXOL
[6] = Microtubules formed in the presence of dEpoB is defined as 100%

## C/C(=C\c1csc(C)n1)[C@@H]1C/C=C(/C(F)(F)F)C/C=C/C[C@H](C)[C@H](O)[C@@H](C)C(=O)C(C)(C)[C@@H](O)CC(=O)O1 [27-Tn-F-[17]ddEpoB (22), 10,11-dehydro-13,14-desoxy-27-trifluoro-[17]epothilone B]
CCRF-CEM; Homo sapiens, CCRF-CEM, Example 6 table, XTT assay following 72 h inhibition, read-out: CCRF-CEM (IC50 (μM))
  IC50: 0.068 µM
CCRF-CEM/VBL100; Homo sapiens, CCRF-CEM, Example 6 table, XTT assay following 72 h inhibition, read-out: CCRF-CEM/VBL (IC50 (μM))
  IC50: 0.191 µM
[1]
  stability in mouse blood plasma: more stable

## CC1=C/C[C@@H](/C(C)=C/c2csc(CO)n2)OC(=O)C[C@H](O)C(C)(C)C(=O)[C@H](C)[C@@H](O)[C@@H](C)C\C=C\1 [Compound 21-OH-Epo490]
CCRF-CEM
  activity in CCRF-CEM cell lines: demonstrated activity
CCRF-CEM; Homo sapiens, CCRF-CEM, Example 5 Table 1, 72 h inhibition, read-out: In vitro Cytotoxicities (IC50) CCRF-CEM(C)
  IC50: 0.03 µM
CCRF-CEM; [2]
  IC50: 0.03 µM
CCRF-CEM/VBL100; Homo sapiens, CCRF-CEM, Example 5 Table 1, 72 h inhibition, read-out: In vitro Cytotoxicities (IC50) C/VBL100
  IC50: 0.202 µM
CCRF-CEM/VBL100; [3]
  IC50: 0.202 µM
CCRF-CEM/VM1; Homo sapiens, CCRF-CEM, Example 5 Table 1, 72 h inhibition, read-out: In vitro Cytotoxicities (IC50) C/VM1
  IC50: 61 nM
CCRF-CEM/VM1; [4]
  IC50: 61 nM
CCRF-CEM/Taxol
  activity in CCRF-CEM cell lines resistant to Taxol: demonstrated activity
CCRF-CEM/Taxol; Homo sapiens, CCRF-CEM, Example 5 Table 1, 72 h inhibition, read-out: In vitro Cytotoxicities (IC50) C/Taxol
  IC50: 51 nM
CCRF-CEM/Taxol; [5]
  IC50: 51 nM
tubulin; Example 5 Table 1
  % Tubulin Binding: 77%
tubulin; [6]
  % Tubulin Binding: 77%

## C/C(=C\c1csc(C)n1)[C@@H]1C/C=C(/CF)CCC[C@H](C)[C@H](O)[C@@H](C)C(=O)C(C)(C)[C@@H](O)CC(=O)O1 [Compound 26F-EpoD]
CCRF-CEM
  activity in CCRF-CEM cell lines: demonstrated activity
CCRF-CEM; Example 12, read-out: activity for CCRF-CEM cell lines
  IC50: ~0.0015 µM
CCRF-CEM/Taxol
  activity in CCRF-CEM cell lines resistant to Taxol: demonstrated activity
CCRF-CEM/Taxol; Example 12, read-out: activity for CCRF-CEM/Taxol resistant cell lines
  IC50: ~11 nM

## CC(=O)O[C@H]1C(=O)[C@@]2(C)[C@H]([C@H](OC(=O)c3ccccc3)[C@]3(O)C[C@H](OC(=O)[C@H](O)[C@@H](NC(=O)c4ccccc4)c4ccccc4)C(C)=C1C3(C)C)[C@]1(OC(C)=O)CO[C@@H]1C[C@@H]2O [Taxol, paclitaxel, reference compound]
CCRF-CEM; [2]
  IC50: 0.0021 µM
CCRF-CEM/VBL100; [3]
  IC50: 0.827 µM
CCRF-CEM/VM1; [4]
  IC50: 3 nM
CCRF-CEM/Taxol; [5]
  IC50: 81 nM

## CC1=CCC(C(C)=Cc2csc(C)n2)OC(=O)CC(O)C(C)(C)C(=O)C(C)C(O)C(C)CC=CC1 (stereo not shown) [[17]ddEpoB, 10,11-dehydro-13,14-[17]desoxyepothilone B]
CCRF-CEM; Example 6 table, XTT assay following 72 h inhibition, read-out: CCRF-CEM (IC50 (μM))
  IC50: 0.04 µM
CCRF-CEM; Example 12, growth inhibition, read-out: activity, CCRF-CEM tumor cell lines
  IC50: ~0.051 µM
CCRF-CEM; XTT assay following 72 h inhibition, read-out: In vitro Cytotoxicities (IC50) CCRF-CEM
  IC50: 0.04 µM
CCRF-CEM/VBL100; Example 6 table, XTT assay following 72 h inhibition, read-out: CCRF-CEM/VBL (IC50 (μM))
  IC50: 0.126 µM
CCRF-CEM/VBL100; Example 12, growth inhibition, read-out: activity, CCRF-CEM/VBL100 resistant cell lines
  IC50: ~0.137 µM
CCRF-CEM/VBL100; XTT assay following 72 h inhibition, read-out: In vitro Cytotoxicities (IC50) CCRF-CEM/VBL100
  IC50: 0.126 µM
CCRF-CEM/VM1; Example 12, growth inhibition, read-out: activity, CCRF-CEM/VM1 resistant cell lines
  IC50: ~55 nM
CCRF-CEM/VM1; XTT assay following 72 h inhibition, read-out: In vitro Cytotoxicities (IC50) CCRF-CEM/VM1
  IC50: 55 nM
CCRF-CEM/Taxol; Example 12, growth inhibition, read-out: activity, CCRF-CEM/Taxol resistant cell lines
  IC50: ~49 nM
CCRF-CEM/Taxol; XTT assay following 72 h inhibition, read-out: In vitro Cytotoxicities (IC50) CCRF-CEM/Taxol
  IC50: 53 nM
tubulin; Example 5 Table 1
  % Tubulin Binding: 94%

## C/C1=C/C[C@@H](/C(C)=C/c2csc(C)n2)OC(=O)C[C@H](O)C(C)(C)C(=O)[C@H](C)[C@@H](O)[C@@H](C)CCC1 [dEpoB, 12,13-desoxyepothilone B, reference compound]
CCRF-CEM; Homo sapiens, CCRF-CEM, 72 h, read-out: In Vitro Cytotoxicities (IC50) CCRF-CEM
  IC50: 0.011 µM
CCRF-CEM; Homo sapiens, CCRF-CEM, 72 h, read-out: In vitro Cytotoxicities (IC50) CCRF-CEM
  IC50: 0.011 µM
CCRF-CEM; Homo sapiens, CCRF-CEM, 72 h, read-out: In vitro Cytotoxicities (IC50) CCRF-CEM(C)
  IC50: 0.011 µM
CCRF-CEM/VBL100; Homo sapiens, CCRF-CEM, 72 h, read-out: In Vitro Cytotoxicities (IC50) CCRF-CEM/VBL100
  IC50: 0.015 µM
CCRF-CEM/VBL100; Homo sapiens, CCRF-CEM, 72 h, read-out: In vitro Cytotoxicities (IC50) C/VBL100
  IC50: 0.015 µM
CCRF-CEM/VBL100; Homo sapiens, CCRF-CEM, 72 h, read-out: In vitro Cytotoxicities (IC50) CCRF-CEM/VBL100
  IC50: 0.015 µM
CCRF-CEM/VM1; Homo sapiens, CCRF-CEM, 72 h, read-out: In Vitro Cytotoxicities (IC50) CCRF-CEM/VMI
  IC50: 16 nM
CCRF-CEM/VM1; Homo sapiens, CCRF-CEM, 72 h, read-out: In vitro Cytotoxicities (IC50) C/VM1
  IC50: 16 nM
CCRF-CEM/VM1; Homo sapiens, CCRF-CEM, 72 h, read-out: In vitro Cytotoxicities (IC50) CCRF-CEM/VM1
  IC50: 16 nM
CCRF-CEM/Taxol; Homo sapiens, CCRF-CEM, 72 h, read-out: In Vitro Cytotoxicities (IC50) CCRF-CEM/TAXOL
  IC50: 7 nM
CCRF-CEM/Taxol; Homo sapiens, CCRF-CEM, 72 h, read-out: In vitro Cytotoxicities (IC50) C/Taxol
  IC50: 7 nM
CCRF-CEM/Taxol; Homo sapiens, CCRF-CEM, 72 h, read-out: In vitro Cytotoxicities (IC50) CCRF-CEM/Taxol
  IC50: 7 nM
tubulin; Example 5 Table 1
  % Tubulin Binding: 100%
tubulin; [6]
  % Tubulin Binding: 100%

## CC[C@]1(O)C[C@@H]2CN(CCc3c([nH]c4ccccc34)[C@@](C(=O)OC)(c3cc4c(cc3OC)N(C)[C@H]3[C@@](O)(C(=O)OC)[C@H](OC(C)=O)[C@]5(CC)C=CCN6CC[C@]43[C@@H]65)C2)C1 [vinblastine, reference compound]
CCRF-CEM; [2]
  IC50: 0.0008 µM
CCRF-CEM/VBL100; [3]
  IC50: 0.122 µM
CCRF-CEM/VM1; [4]
  IC50: 1.4 nM
CCRF-CEM/Taxol; [5]
  IC50: 18 nM
